Reference: patent publication US7687083B2, “Pharmaceutical compositions comprising old man's beard (Usnea barbata) and St. John's wort (Hypericum perforatum) and their use” (Universitatsklinikum Freiburg, priority 2004, dated 2010)
Values after ≈ are worked out from the molar mass of the structure shown.

Tests used:
[1] = tested on: Pityrosporon ovale; experiment: oil submersion test on Sabouraud agar with scales of patients with seborrhoeal eczema; format: cell-based; details: 1% in olive oil; incubation for 4 days
Procedure: In addition, the efficacy against pityrosporon of 1% Usnea extract in olive oil in comparison with 1% amphotericin was investigated. For this purpose, scales of patients with seborrhoeal eczema were applied to Sabouraud agar and covered with a layer of the oil. After incubation for 4 days in an incubator, the number of colony-forming units was counted.

[2] = tested on: Propionibacterium acnes; experiment: agar dilution test (MIC/MBC); format: cell-based; details: Cutibacterium acnes
Procedure: The old man's beard CO2 extract (Usnea barbata L.) was tested in the concentrations 1:10, 1:50, 1:100, 1:500 and 1:1000 in the agar dilution test for a number of aerobic and anaerobic bacteria. The pure substance usnic acid was tested in concentrations of 128/64/32/16/8/4/2/1/0.5/0.25 and 0.125 μg/ml. The MIC (minimum inhibitory concentration) is defined as >90% inhibition of bacterial growth after 24 h. The MBC (minimum bactericidal concentration) is defined as >90% inhibition of the growth at 48 h.

[3] = UV erythema test; format: in vivo, healthy test persons; details: 1.5 times MED UVB, applied in Finn chambers for 24 hours; FIG. 5
Procedure: The minimal erythema dose for UVB was determined in the case of seven healthy test persons. Thereafter, test fields on the back were exposed to 1.5 times the minimal erythema dose (MED). The test substances were applied in Finn chambers for 24 hours. The UV-induced erythema was determined photometrically before exposure and after action of the substances.

## C[C@@H]1[C@H](O)[C@@H](C)/C=C/C=C/C=C/C=C/C=C/C=C/C=C/[C@H](O[C@@H]2O[C@H](C)[C@@H](O)[C@H](N)[C@@H]2O)C[C@@H]2O[C@](O)(C[C@@H](O)C[C@@H](O)[C@H](O)CC[C@@H](O)C[C@@H](O)CC(=O)O[C@H]1C)C[C@H](O)[C@H]2C(=O)O [1% Amphotericin in olive oil, amphotericin]
[1]
  growth of the pityrosporon yeast fungi: inhibited completely
  number of colony-forming units: 1 CFU

## CC(=O)c1c(O)c(C)c(O)c2c1OC1=CC(=O)C(C(C)=O)C(=O)C12C (centres unmarked) [Usnic acid, usnic acid]
[2]; >90% inhibition of bacterial growth after 24 h
  MIC: 1 µg/mL (≈ 2.9 µM)
[2]; >90% inhibition of the growth at 48 h
  MBC: 4 µg/mL (≈ 11.6 µM)

## CCOC(=O)O[C@]1(C(=O)COC(=O)CC)CC[C@H]2[C@@H]3CCC4=CC(=O)C=C[C@]4(C)[C@H]3[C@@H](O)C[C@@]21C [Prednicarbate]
[3]
  UV-induced inflammation (erythema, photometric): inhibit the UV-induced inflammation
